# Source: US8247211B2, “Glycopeptide antibiotics” (American Cyanamid Company, priority 2001, dated 2012)
# Assays:
# Experiment in all cases: In vitro antibacterial evaluation: minimum inhibitory concentration (MIC), broth dilution method
# Format in all cases: cell-based
# [1] = system: Enterococcus sp.
# Procedure, shortened: (§1)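 First, organisms are seeded at 5×10^5 CFU/mL into Muller-Hinton II […]. Next, antibiotic is applied across 64-0.06 μg/mL by broth dilution (NCCLS M7-A2). Finally, the lowest inhibitory concentration is recorded as MIC.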
# [2] = system: Escherichia coli
# Procedure, shortened: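 NCCLS M7-A2 broth dilution; Muller-Hinton II […]; 5×10^5 CFU/mL; 64-0.06 μg/mL. MIC = lowest concentration with no growth.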
# [3] = system: Staphylococcus sp.; conditions: broth dilution, 18 hours at 35° C.
# Procedure, shortened: as §1
# [4] = system: Streptococcus sp.
# Procedure, shortened: as §1
# [5] = broth dilution, inoculum 5×10^5 CFU/mL, 18 hours at 35° C.
smiles,measurement,setting,value
"CC(c1ccccc1)C1NC(=O)CNC(=O)C(CO)NC(=O)C(C(O)C2CNC(=N)N2C2OC(CO)C(O)C(O)C2O)NC(=O)C(C(O)C2CNC(=N)N2)NC(=O)C(Cc2ccc(OC3OC(CO)C(OC4OC5COC(c6cccc(Oc7ccccc7)c6)OC5C(O)C4O)C(O)C3O)cc2)NC1=O (stereo not drawn) [Example 170, Cyclo[glycyl-β-methylphenylalanyl-O-[4-O-[4,6-O-(3-phenoxybenzylidene)hexopyranosyl]-hexopyranosyl]tyrosyl-3-(2-iminoimidazoliclin-4-yl)seryl-3-(3-hexopyranosyl-2-iminoimidazolidin-4-yl)serylseryl]]",MIC Enterococcus avium (GC 4558),[1]; [5],4 µg/mL
same,MIC Enterococcus faecalis (ATCC 29212),[1]; [5],4 µg/mL
same,MIC Enterococcus faecalis (GC 2242),[1]; [5],4 µg/mL
same,MIC Enterococcus faecalis (GC 2691),[1]; [5],4 µg/mL
same,MIC Enterococcus faecalis (GC 3059),[1]; [5],4 µg/mL
same,MIC Enterococcus faecalis (GC 4552),[1]; [5],4 µg/mL
same,MIC Enterococcus faecalis (GC 4553),[1]; [5],4 µg/mL
same,MIC Enterococcus faecalis (GC 4554),[1]; [5],2 µg/mL
same,MIC Enterococcus faecalis (GC 6189),[1]; [5],4 µg/mL
same,MIC Enterococcus faecium (GC 2243),[1]; [5],4 µg/mL
same,MIC Enterococcus faecium (GC 4556),[1]; [5],4 µg/mL
same,MIC Enterococcus faecium (GC 4557),[1]; [5],4 µg/mL
same,MIC Enterococcus faecalis (ATCC 29212),[1]; strain ATCC 29212,4 µg/mL
same,MIC Enterococcus faecalis (GC 2242),[1]; strain GC 2242,4 µg/mL
same,MIC Enterococcus faecium (GC 2243),[1]; strain GC 2243,4 µg/mL
same,MIC Enterococcus faecalis (GC 2691),[1]; strain GC 2691,4 µg/mL
same,MIC Enterococcus faecalis (GC 3059),[1]; strain GC 3059,4 µg/mL
same,MIC Enterococcus faecalis (GC 4552),[1]; strain GC 4552,4 µg/mL
same,MIC Enterococcus faecalis (GC 4553),[1]; strain GC 4553,4 µg/mL
same,MIC Enterococcus faecalis (GC 4554),[1]; strain GC 4554,2 µg/mL
same,MIC Enterococcus faecium (GC 4556),[1]; strain GC 4556,4 µg/mL
same,MIC Enterococcus faecium (GC 4557),[1]; strain GC 4557,4 µg/mL
same,MIC Enterococcus avium (GC 4558),[1]; strain GC 4558,4 µg/mL
same,MIC Enterococcus faecalis (GC 6189),[1]; strain GC 6189,4 µg/mL
same,MIC Escherichia coli (ATCC 25922),[2]; strain ATCC 25922,>64 µg/mL
same,MIC Escherichia coli (GC 4559),[2]; strain GC 4559,>64 µg/mL
same,MIC Escherichi coli (GC 4560),[2]; strain GC 4560,4 µg/mL
same,MIC Coagulase Negative Staphylococcus (GC 4547),[3]; 5×10^5 CFU/mL,4 µg/mL
same,MIC Coagulase Negative Staphylococcus (GC 4548),[3]; 5×10^5 CFU/mL,1 µg/mL
same,MIC Coagulase Negative Staphylococcus (GC 4549),[3]; 5×10^5 CFU/mL,2 µg/mL
same,MIC Coagulase Negative Staphylococcus (GC 4551),[3]; 5×10^5 CFU/mL,1 µg/mL
same,MIC Coagulase Negative Staphylococcus (GC 6257),[3]; 5×10^5 CFU/mL,1 µg/mL
same,MIC Staphylococcus aureus (ATCC 29213),[3]; 5×10^5 CFU/mL,4 µg/mL
same,MIC Staphylococcus aureus (GC 1131),[3]; 5×10^5 CFU/mL,4 µg/mL
same,MIC Staphylococcus aureus (GC 3051),[3]; 5×10^5 CFU/mL,4 µg/mL
same,MIC Staphylococcus aureus (GC 3053),[3]; 5×10^5 CFU/mL,1 µg/mL
same,MIC Staphylococcus aureus (GC 4541),[3]; 5×10^5 CFU/mL,2 µg/mL
same,MIC Staphylococcus aureus (GC 4542),[3]; 5×10^5 CFU/mL,4 µg/mL
same,MIC Staphylococcus aureus (GC 4544),[3]; 5×10^5 CFU/mL,2 µg/mL
same,MIC Staphylococcus aureus (GC 4545),[3]; 5×10^5 CFU/mL,4 µg/mL
same,MIC Staphylococcus aureus-SMITH (GC 4543),[3]; 5×10^5 CFU/mL,4 µg/mL
same,MIC Staphylococcus haemolyticus (GC 4546),[3]; 5×10^5 CFU/mL,8 µg/mL
same,MIC Staphylococcus aureus (ATCC 29213),[3]; strain ATCC 29213,4 µg/mL
same,MIC Staphylococcus aureus (GC 1131),[3]; strain GC 1131,4 µg/mL
same,MIC Staphylococcus aureus (GC 3051),[3]; strain GC 3051,4 µg/mL
same,MIC Staphylococcus aureus (GC 3053),[3]; strain GC 3053,1 µg/mL
same,MIC Staphylococcus aureus (GC 4541),[3]; strain GC 4541,2 µg/mL
same,MIC Staphylococcus aureus (GC 4542),[3]; strain GC 4542,4 µg/mL
same,MIC Staphylococcus aureus (GC 4544),[3]; strain GC 4544,2 µg/mL
same,MIC Staphylococcus aureus (GC 4545),[3]; strain GC 4545,4 µg/mL
same,MIC Streptococcus agalactiae (GC 4564),[4]; [5],<0.06 µg/mL
same,MIC Streptococcus pneumoniae (ATCC 6301),[4]; [5],<0.06 µg/mL
same,MIC Streptococcus pneumoniae (GC 1894),[4]; [5],<0.06 µg/mL
same,MIC Streptococcus pneumoniae (GC 4565),[4]; [5],<0.06 µg/mL
same,MIC Streptococcus pyogenes (GC 4563),[4]; [5],<0.06 µg/mL
same,MIC Streptococcus pneumoniae (ATCC 6301),[4]; strain ATCC 6301,<0.06 µg/mL
same,MIC Streptococcus pneumoniae (GC 1894),[4]; strain GC 1894,<0.06 µg/mL
same,MIC Streptococcus pyogenes (GC 4563),[4]; strain GC 4563,<0.06 µg/mL
same,MIC Streptococcus agalactiae (GC 4564),[4]; strain GC 4564,<0.06 µg/mL
same,MIC Streptococcus pneumoniae (GC 4565),[4]; strain GC 4565,<0.06 µg/mL
